Experimental data from patent US20200360331A1, “COMPOSITIONS COMPRISING 15-HEPE AND/OR 15-HETrE AND METHODS OF TREATING OR PREVENTING CARDIOMETABOLIC DISEASE, METABOLIC SYNDROME, AND/OR RELATED DISEASES” (Afimmune Limited, priority 2019, published 2020).
Entries after “also recorded” stand apart in the source; their conditions may differ.

Key:
NAFLD patients = assay: Phase IIa NAFLD study: alkaline phosphate (ALP); assay type: in vivo, human; settings: 2 g
Experimental: The study was planned to include 96 evaluable patients with 32 patients randomized per treatment group.
Clinical Laboratory Safety Tests: Safety tests were performed for hematology, serum biochemistry, coagulation, lipid profile, and urinalysis: Blood and urine samples were taken as per the Study Flow Chart in Table 19 for routine hematology, serum biochemistry, coagulation and urinalysis tests, along with a Lipid Profile. All samples were analyzed in the central laboratory. All subjects were fasted for a minimum of 8 hours prior to blood sampling. […]

UUO mice [1] = assay: UUO study: Sirius red staining of kidney sections, fibrosis area; assay type: in vivo, C57BL/6 mice; settings: for fibrosis area compared with the Vehicle group: Mann-Whitney U test (p<0.1); for Sirius red-positive area / Sirius red-positive area (%) _Median: kidney
Experimental: (§1) UUO Surgery: On day 0 of the study, UUO surgery was performed on mice under pentobarbital sodium anesthesia. The mouse's hair was first shaved and then abdomen cut open to exteriorize the mouse's left ureter. The ureter was ligated 4-0 nylon sutures at two points. The mouse's peritoneum and skin were then closed with sutures, and the mouse transferred to a clean cage until recovered from the anesthesia. Sham operated mice had their left ureter exposed but not ligated.
Histopathological analysis: To visualize collagen deposition, kidney sections were stained using picro-Sirius red solution (Waldeck, Germany). For quantification of interstitial fibrosis area, bright field images in the corticomedullary region were captured using a digital camera (e.g., DFC295; Leica Microsystems, Germany) at 200-fold magnification, and the positive areas in 5 fields/section were measured using ImageJ software (National Institute of Health, USA).

UUO mice [2] = assay: UUO study: kidney hydroxyproline content; assay type: in vivo, C57BL/6 mice
Experimental: as §1
Measurement of Kidney Biochemistry: To quantify kidney hydroxyproline content, frozen left kidney samples were processed by an alkaline-acid hydrolysis method as follows: kidney samples were dissolved in 2 normal (N) sodium hydroxide (NaOH) at 65° C. and autoclaved at 121° C. for 20 minutes. The lysed samples (400 μL) were acid-hydrolyzed with 400 μL of 6N hydrochloride acid (HCl) at 121° C. for 20 minutes, and neutralized with 400 μL of 4N NaOH containing 10 mg/mL of activated carbon. An AC buffer (e.g., 2.2M acetic acid/0.48M citric acid, 400 μL) was added to the samples, followed by centrifugation to collect the supernatant. A standard curve of hydroxyproline was constructed with serial dilutions of trans-4-hydroxy-L-proline (Sigma-Aldrich, USA) starting at 16 μg/mL. The prepared samples and standards (e.g., each 400 μL) were mixed with 400 μL chloramine T solution (Wako Pure Chemical Industries, Japan) and incubated for 25 minutes at room temperature. The samples were then mixed with Ehrlich's solution (e.g., 400 μL) and heated at 65° C. for 20 minutes to develop the color. After samples were cooled on ice and centrifuged to remove precipitates, the optical density of each supernatant was measured at 560 nanometers (nm). The concentrations of hydroxyproline were calculated from the hydroxyproline standard curve. Protein concentrations of kidney samples were determined using a bicinchoninic (BCA) protein assay kit (Thermo Fisher Scientific, USA) and used to normalize the calculated hydroxyproline values. Kidney hydroxyproline contents were expressed as microgram (μg) per mg protein.

TIMP-1 = assay: BDL study: quantitative RT-PCR of liver, TIMP-1; assay type: in vivo, C57BL/6J mice; settings: BDL mice liver
Experimental: Quantitative RT-PCR: Total ribonucleic acid (RNA) was extracted from liver samples using RNAiso (Takara Bio, Japan) according to the manufacturer's instructions. One μg of RNA was reverse-transcribed using a reaction mixture containing 4.4 mM magnesium chloride (MgCl2) (F. Hoffmann-La Roche, Switzerland), 40 U RNase inhibitor (Toyobo, Japan), 0.5 mM dNTP (Promega, USA), 6.28 μM random hexamer (Promega), 5× first strand buffer (Promega), 10 mM dithiothreitol (Invitrogen, USA) and 200 U MMLV-RT (Invitrogen) in a final volume of 20 μL. The reaction was carried out for 1 hour at 37° C., followed by 5 minutes at 99° C. Real-time PCR was performed using real-time PCR DICE and TB Green™ Premix Ex Taq™ II (Takara Bio). To calculate the relative mRNA expression level, the expression of each gene (α-SMA, TIMP-1, TGF-β and Collagen Type 1) was normalized to that of reference gene 36B4 (gene symbol: Rplp0). Information regarding the PCR-primer sets and the plate layout are described in Tables 8 and 9.

[3] = 50 mg/kg PO QD Day 0-13, Day 14
[4] = 500 mg/kg PO QD Day 0-13, Day 14

In the case of CC/C=C\CC(O)/C=C/C=C\C/C=C\C/C=C\CCCC(=O)O (stereo not shown) [DS102, 15-hydroxy-eicosa-5Z,8Z,11Z,13E,17Z-pentaenoic acid], the “alkaline phosphate (ALP)” value (NAFLD patients) is reported as “reduced”, the “fibrosis area compared with the Vehicle group” value (UUO mice [1]; 50 mg/kg) is reported as “tended to decrease; also recorded: reduction trend” and the “fibrosis area compared with the Vehicle group” value (UUO mice [1]; 500 mg/kg) is reported as “tended to decrease; also recorded: reduction trend”. The Sirius red-positive area (UUO mice [1]; [3]) was 5.01 ± 3.11%, the “Sirius red-positive area (%) _Median” value (UUO mice [1]; 50 mg/kg PO QD Day 0-13, Day 14, median) was 4.19 ± 3.33% and the Sirius red-positive area (UUO mice [1]; [4]) was 4.01 ± 1.92%. For the same compound, the “Sirius red-positive area (%) _Median” value (UUO mice [1]; 500 mg/kg PO QD Day 0-13, Day 14, median) was 3.08 ± 1.16%, the “kidney hydroxyproline contents compared with the Vehicle group” value (UUO mice [2]; 50 mg/kg) was “significant decrease” and the Kidney hydroxyproline (UUO mice [2]; [3]) was 8.47 ± 2.08 μg/mg total protein. For the same compound, the “kidney hydroxyproline contents compared with the Vehicle group” value (UUO mice [2]; 500 mg/kg) was “significant decreases”, the Kidney hydroxyproline (UUO mice [2]; [4]) was 8.59 ± 1.99 μg/mg total protein and the “TIMP-1 mRNA expression level compared with the Vehicle group” value (TIMP-1; 500 mg/kg) was “tended to decrease; also recorded: trend approaching significance”. For the same compound, the “TIMP-1 mRNA expression level vs Vehicle group” value (TIMP-1; DS102 treatment groups) was “no significant differences”, the TIMP-1 gene expression (TIMP-1; relative mRNA normalized to 36B4, 50 mg/kg PO QD Day 0-13) was 43.82 ± 26.19 and the TIMP-1 gene expression (TIMP-1; relative mRNA normalized to 36B4, 250 mg/kg PO QD Day 0-13) was 30.65 ± 16.80. For the same compound, the TIMP-1 gene expression (TIMP-1; relative mRNA normalized to 36B4, 500 mg/kg PO QD Day 0-13) was 16.09 ± 10.16.
